# In patent US20040009955A1, “Method of prophylaxis” (priority 2002, published 2004):
# System: MT-1 breast cancer cells
# Experiment: Symptom free survival of nude rats inoculated with MT-1 breast cancer cells (treatment efficacy against skeletal metastases)
# Assay type: in vivo, nude rats (Han: rnu/rnu Rowett)
# Conditions: for increase in survival relative to the control: Wilcoxon rank sum test
# [1] = Without Aredia, 300 kBq/ka ^223Ra (regimen A)
# Protocol: The effect of ^223Ra in prolonging symptom free survival of rate was studied for two treatment regimens [A] comparative and [B] according to the invention.
# Treatment regimen [A]: Animals were treated seven days after tumor cell inoculation. At this time animal body weights varied between 80 and 110 grams and animals were randomized in groups so the average weight for a group was about 100 g at the time of treatment. The treatment groups received 11 or 30 kBq of ^223Ra administered by tail vein injection while animals in the control group were injected with an equivalent volume of 5 mM sodium citrate solution.
# Treatment regimen [B]: 3-Amino-1-hydroxypropylidene bisphosphonate, di-sodium salt (Aredia™, Novartis AG, Switzerland), was added as a supplemental treatment to ^223Ra. Animals in the treatment groups were treated on day 7 after tumor cell inoculation with 10 or 30 kBq of ^223Ra. The following day, 1.5 mg/kg b.w. of Aredia™, was administered by i.v. injection. Animals in the control group received 5 mM sodium citrate solution on day 7 and 1.5 mg/kg b.w. of Aredia™ on day 8.
# Symptom free animals were followed for at least 50 days after the treatment. The significance of treatment response was related to symptom free survival and evaluated using the Wilcoxon rank sum test.
smiles,measurement,setting,value
"[223Ra] [^223Ra, radium-223]",survival improvement compared to the control group,"60 kBq ^223Ra, regimen A",not significant
same,symptom free survivors,"60 kBq ^223Ra, regimen A (1/5)",20%
same,symptom free survivors beyond 50 days,"100 kBq/kg ^223Ra, regimen A (5/14)",36%
same,increase in survival relative to the control,"100 kBq/kg ^223Ra, regimen A",significant at the 1% level
same,"increase in survival compared to the control group, groups taken together","100 kBq/kg and 300 kBq/kg ^223Ra groups taken together, regimen A, P <0.05",significant
same,increase in survival relative to the control,"300 kBq/kg ^223Ra, regimen A",significant at the 1% level
same,Survival beyond 67 day,"Without Aredia, 100 kBq/kg ^223Ra (regimen A)",33%
same,Mean survival,"Without Aredia, 100 kBq/kg ^223Ra i.v. day 7 after tumor cell inoculation (regimen A)",38 days
same,Survival beyond 67 day,[1],0%
same,Survival range,[1],27-61
same,Mean survival,"Without Aredia, 300 kBq/ka ^223Ra i.v. day 7 (regimen A)",38 days
